Data on five compounds can be found in US20060029644A1, “In vitro biochemical reactions with free anhydrous D-ribose” (priority 2004, published 2006).

“Also recorded” adds a separate entry of the source.

A short description of data set [1]: stability of the powder on heating. As to conditions: for stability of the powder when heated: 150° F., heated alone or mixed with each other. It counts as physicochemical.
For data set [2] the following is noted: taken in 20 grams or less a day; cited from earlier work.
A further data set is described as follows: solubility in water. It counts as physicochemical.

As for `O=C[C@H](O)[C@H](O)[C@H](O)CO` [anhydrous D-ribose], in data set [1], the “temperature to which the powder can be heated without losing its powdery form” value was less than 120 ° F and the “stability of the powder when heated” value is listed as “unstable”. For the same compound, the toxicity result in data set [2] is listed as “extremely low toxicity”.
In the case of `O=C(CO)[C@@H](O)[C@H](O)[C@H](O)CO` [fructose, reference compound], the “stability of the powder when heated” value in data set [1] is given as “remain powders”.
In the case of `OC[C@H]1O[C@@H](O[C@H]2[C@H](O)[C@@H](O)C(O)O[C@@H]2CO)[C@H](O)[C@@H](O)[C@H]1O` (stereo partly drawn) [lactose, reference compound], the “stability of the powder when heated” value in data set [1] was “remain powders”.
Consider `O.O=C[C@H](O)[C@H](O)[C@H](O)CO` [ribose monohydrate, D-ribose monohydrate], for which the solubility in water result in “solubility in water” (listed as monohydrate) was “very soluble in water”; in the data set “solubility in water” (monohydrate), “highly soluble in water; also recorded: extreme solubility; also recorded: highest possible solubility in water”. Besides, the “stability compared with the anhydrous powder” value in data set [1] (especially with water, sugars and some consumable monohydrates) is on record as “far more stable”.
Consider `OC[C@H]1O[C@@](CO)(O[C@H]2O[C@H](CO)[C@@H](O)[C@H](O)[C@H]2O)[C@@H](O)[C@@H]1O` [sucrose, reference compound], for which the “stability of the powder when heated” value in data set [1] is listed as “remain powders”.
